Columns and labels:
[1] = biological target: T1, cloned human 5-HT6 receptor (Homo sapiens, UniProt P50406); assay: 5-HT6 Receptor Binding Assay ([3H]-LSD radioligand, SPA); conditions: for inhibition at 1 µM: read-out: 5HT6 % inh @ 1 uM
T1 construct: host or cells: HeLa cells, G-418 selection, membrane preparation
Procedure, shortened: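 Membranes from HeLa cells expressing cloned human 5-HT6 receptor, mixed with WGA-coated SPA beads in 20 mM HEPES, 10 mM MgCl2, 150 mM NaCl, 1 mM EDTA pH 7.4 with [3H]-LSD; 1 h at room temperature. Eleven concentrations in duplicate; one-site fit IC50 converted to Ki by Cheng-Prusoff.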

T1 sequence (P50406 whole entry): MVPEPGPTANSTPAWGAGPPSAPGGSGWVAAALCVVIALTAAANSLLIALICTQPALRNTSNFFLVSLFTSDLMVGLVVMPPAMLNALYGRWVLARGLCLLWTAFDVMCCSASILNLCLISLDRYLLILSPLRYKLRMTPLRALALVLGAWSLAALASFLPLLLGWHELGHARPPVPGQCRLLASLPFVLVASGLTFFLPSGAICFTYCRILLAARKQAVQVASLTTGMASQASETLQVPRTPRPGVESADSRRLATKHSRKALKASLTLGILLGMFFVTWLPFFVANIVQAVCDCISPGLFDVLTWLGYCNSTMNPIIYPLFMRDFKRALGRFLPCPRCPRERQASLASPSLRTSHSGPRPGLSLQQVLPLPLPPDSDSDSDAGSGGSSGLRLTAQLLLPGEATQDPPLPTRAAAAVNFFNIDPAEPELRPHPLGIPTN

Compound	inhibition at 1 µM [1] [%]	melting point [°C]	inhibition at 0.3 µM ([1]; 0.3 μM (stated in cell), read-out: 5HT6 % inh @ 0.3 μM) [%]
Cc1ccc(O[C@H]2CCCN(C(=O)c3cccc(N4CCCNCC4)n3)C2)cc1 [Example 41, (6-[1,4]Diazepan-1-yl-pyridin-2-yl)-((S)-3-p-tolyloxy-piperidin-1-yl)-methanone]	94.7	157.6 to 158.2	
O=C(c1cccc(N2CCCNCC2)n1)N1CCCCC1c1ccccc1F (centres unmarked) [Example 31, (6-[1,4]Diazepan-1-yl-pyridin-2-yl)-[2-(2-fluoro-phenyl)-piperidin-1-yl]-methanone]	94.5	183.4 to 184	
O=C(c1cccc(N2CCCNCC2)n1)N1CCC[C@H](Oc2ccc(F)cc2)C1 [Example 39, (6-[1,4]Diazepan-1-yl-pyridin-2-yl)-[(S)-3-(4-fluoro-phenoxy)-piperidin-1-yl]-methanone]	82	107.9 to 109	
Cc1ccccc1C1=CCN(C(=O)c2cccc(N3CCN(C)CC3)n2)CC1 [Example 24, [6-(4-Methyl-piperazin-1-yl)-pyridin-2-yl]-(4-o-tolyl-3,6-dihydro-2H-pyridin-1-yl)-methanone]		160.7 to 162.3	92
CN1CCN(c2cccc(C(=O)N3CCCC[C@@H]3c3ccccc3F)n2)CC1 [Example 57, [(R)-2-(2-Fluoro-phenyl)-piperidin-1-yl]-[6-(4-methyl-piperazin-1-yl)-pyridin-2-yl]-methanone]	94	111.7 to 112	
CN1CCN(c2cccc(C(=O)N3CCC(c4ccccc4F)CC3)n2)CC1 [Example 20, [4-(2-Fluoro-phenyl)-piperidin-1-yl]-[6-(4-methyl-piperazin-1-yl)-pyridin-2-yl]-methanone]	101	111 to 113	
O=C(c1cccc(N2CCCNCC2)n1)N1CCC[C@H](Oc2cccc(F)c2)C1 [Example 38, (6-[1,4]Diazepan-1-yl-pyridin-2-yl)-[(S)-3-(3-fluoro-phenoxy)-piperidin-1-yl]-methanone]	99.4	96.9 to 97.5	
Cc1ccccc1C1CCCCN1C(=O)c1cccc(N2CCCNCC2)n1 (centres unmarked) [Example 33, (6-[1,4]Diazepan-1-yl-pyridin-2-yl)-(2-o-tolyl-piperidin-1-yl)-methanone]	84.6	123.3 to 124	
Cc1cccc(O[C@@H]2CCCN(C(=O)c3cccc(N4CCCNCC4)n3)C2)c1 [Example 48, (6-[1,4]Diazepan-1-yl-pyridin-2-yl)-((R)-3-m-tolyloxy-piperidin-1-yl)-methanone]	86.1	158 to 160	
Cc1ccccc1O[C@H]1CCN(C(=O)c2cccc(N3CCCNCC3)n2)C1 [Example 36, (6-[1,4]Diazepan-1-yl-pyridin-2-yl)-((S)-3-o-tolyloxy-pyrrolidin-1-yl)-methanone]	93.5	140 to 142	

Second part, the compound after the results:

inhibition at 1 µM [1] [%]	melting point [°C]	inhibition at 0.3 µM ([1]; 0.3 μM (stated in cell), read-out: 5HT6 % inh @ 0.3 μM) [%]	Compound
89.9	75 to 76		COc1ccccc1CN(C)C(=O)c1cccc(N2CCN(C)CC2)n1 [Example 72, 6-(4-Methyl-piperazin-1-yl)-pyridine-2-carboxylic acid (2-methoxy-benzyl)-methyl-amide]
97.7	139.6 to 141.41		Cc1ccc(F)cc1C1CCN(C(=O)c2cccc(C3CCN(C)C3)n2)CC1 (centres unmarked) [Example 112, [4-(5-Fluoro-2-methyl-phenyl)-piperidin-1-yl]-[6-(1-methyl-pyrrolidin-3-yl)-pyridin-2-yl]-methanone]
99.5	118 to 120		Cc1cccc(O[C@H]2CCCN(C(=O)c3cccc(N4CCCN(C)CC4)n3)C2)c1 [Example 86, [6-(4-Methyl-[1,4]diazepan-1-yl)-pyridin-2-yl]-((S)-3-m-tolyloxy-piperidin-1-yl)-methanone]
104	122.6 to 123.2		Cc1cccc(F)c1C1CCN(C(=O)c2cccc(C3CCN(C)C3)n2)CC1 (centres unmarked) [Example 111, [4-(2-Fluoro-6-methyl-phenyl)-piperidin-1-yl]-[6-(1-methyl-pyrrolidin-3-yl)-pyridin-2-yl]-methanone]
99.5	78 to 80		CN1CCN(c2cccc(C(=O)N3CCC[C@H](Oc4cccc(Cl)c4)C3)n2)CC1 [Example 77, [(S)-3-(3-Chloro-phenoxy)-piperidin-1-yl]-[6-(4-methyl-piperazin-1-yl)-pyridin-2-yl]-methanone]
79.1	130.8 to 131.5		CN1CCN(c2cccc(C(=O)N3CCCC[C@@H]3c3ccc(F)cc3)n2)CC1 [Example 67, [(R)-2-(4-Fluoro-phenyl)-piperidin-1-yl]-[6-(4-methyl-piperazin-1-yl)-pyridin-2-yl]-methanone]
83	199.5 to 200.6		CN1CCN(c2cccc(C(=O)N(C)Cc3ccccc3C(F)(F)F)n2)CC1 [Example 92, 6-(4-Methyl-piperazin-1-yl)-pyridine-2-carboxylic acid methyl-(2-trifluoromethyl-benzyl)-amide]
97.6	156.4 to 157.7		Cc1cc(F)ccc1C1CCN(C(=O)c2cccc(N3CCN(C)CC3)n2)CC1 [Example 105, [4-(4-Fluoro-2-methyl-phenyl)-piperidin-1-yl]-[6-(4-methyl-piperazin-1-yl)-pyridin-2-yl]-methanone]
101	128.6 to 129.2		Cc1c(F)cccc1C1CCN(C(=O)c2cccc(N3CCN(C)CC3)n2)CC1 [Example 104, [4-(3-Fluoro-2-methyl-phenyl)-piperidin-1-yl]-[6-(4-methyl-piperazin-1-yl)-pyridin-2-yl]-methanone]
93.6	116.2 to 117.4		Cc1cc(F)ccc1C1CCN(C(=O)c2cccc(C3CCN(C)C3)n2)CC1 (centres unmarked) [Example 106, [4-(4-Fluoro-2-methyl-phenyl)-piperidin-1-yl]-[6-(1-methyl-pyrrolidin-3-yl)-pyridin-2-yl]-methanone]
101	85.1 to 86.2		Cc1ccc(F)cc1C1CCN(C(=O)c2cccc(N3CCN(C)CC3)n2)CC1 [Example 103, [4-(5-Fluoro-2-methyl-phenyl)-piperidin-1-yl]-[6-(4-methyl-piperazin-1-yl)-pyridin-2-yl]-methanone]
91.9	101 to 102		Cc1cccc(CN(C)C(=O)c2cccc(N3CCN(C)CC3)n2)c1 [Example 73, 6-(4-Methyl-piperazin-1-yl)-pyridine-2-carboxylic acid methyl-(3-methyl-benzyl)-amide]
